These results are taken from ChEMBL document CHEMBL3507680, “University of Dundee, Gates Library screen for HepG2 cell viability”.

This data set in a line: Human HepG2 cell viability assay in 384 well format. The format is toxicity, cell-based. Details: dose 125 nL, time 70.5 hour; concentration not given beside the values. To be noted: HepG2 cells, read-out: Inhibition.
Turning to `O=C(c1cnccn1)N1CCc2ncc(CN3CCOCC3)n2CC1`, the cytotoxicity at 70.5 h was -8.64%.
As for `Cc1cccc(C(=O)N2CC[C@@H]3CN(c4ncccn4)CCO[C@@H]3C2)c1`, the figure is -9.91%.
As for `CS(=O)(=O)NCc1nnc2n1CCN(Cc1nccs1)C2`, the cytotoxicity at 70.5 h was 5.64%.
As for `O=C(Nc1cccnc1)[C@H]1C[C@@H]2CN(S(=O)(=O)C3CC3)C[C@H]1O2`, the figure is -4.16%; as for `CN(C)S(=O)(=O)N1C[C@H]2C[C@H](C(=O)Nc3cccnc3)[C@@H](C1)O2`, -8.64%.
`CCCS(=O)(=O)N1C[C@H]2C[C@H](C(=O)Nc3cccnc3)[C@@H](C1)O2`: the cytotoxicity at 70.5 h is -4.17%.
The value for `CS(=O)(=O)NCc1nnc2n1CCN(Cc1ccc(F)cc1)C2` was -3.88%; that for `Cc1cccc(C(=O)N2C[C@@H]3OCCN(CCN4CCCC4)[C@@H]3C2)n1` was -7.28%; that for `CC1=N[C@@]2(CC[C@@H]3CN(S(=O)(=O)C4CC4)C[C@@H]32)C(=O)N1CC(C)C` was 10.8%.
As for `Cc1nc(COC[C@@H]2CC[C@H]3[C@H](CCN3C(=O)C3CC3)O2)cs1`, the figure is -7.97%; as for `CC1=N[C@@]2(CC[C@@H]3CN(S(C)(=O)=O)C[C@@H]32)C(=O)N1CC(C)C`, -15.6%; as for `CCN1C(=O)[C@]2(CC[C@@H]3CN(S(=O)(=O)CC(C)C)C[C@@H]32)N=C1C`, -12.6%.
With `Cc1nnc([C@@H]2CC[C@@H]3[C@@H](CCN3S(C)(=O)=O)O2)o1`, the cytotoxicity at 70.5 h was -10.9%.
With `CN(C)CC(=O)N1Cc2nc(C(=O)NCc3ccccc3)oc2C1`, the cytotoxicity at 70.5 h is 13%.
Regarding `CCS(=O)(=O)N1C[C@H]2CC[C@@]3(N=C(C)N(CC(C)C)C3=O)[C@H]2C1`, the cytotoxicity at 70.5 h is -10.8%.
For the molecule `CC(=O)N1Cc2nc(C(=O)NCCc3cccnc3)oc2C1`, the cytotoxicity at 70.5 h was -6.92%.
Take `CCN1Cc2c(C(=O)NC(C)C)ncn2-c2ccccc2S1(=O)=O`: the cytotoxicity at 70.5 h is -16.2%.
For `CC(=O)N1CC[C@@H]2O[C@@H](COCc3csc(C)n3)CC[C@@H]21`, the cytotoxicity at 70.5 h was 12%.
The value for `CCN1C(=O)CO[C@@H]2CN(C(=O)C3CCOCC3)C[C@H]21` was -6.45%.
As for `CN1CCN(Cc2cnc3n2CCN(C(=O)c2cscn2)C3)CC1`, the figure is -3%.
As for `Cn1cc(CN2Cc3cn(C)nc3C(COCC3CC3)C2)cn1` (stereo unspecified), the figure is -5.92%; as for `Cc1noc([C@H]2C[C@H]3CN(C(=O)C4CCOCC4)CC[C@@H]3O2)n1`, -12.9%; as for `O=C1CC2(CCN(Cc3ncc[nH]3)CC2)CN1Cc1cc(F)cc(F)c1`, -3.59%.
As for `O=C(O)[C@@H]1CN(C(=O)CSCC2CC2)C[C@H]1c1ccncc1`, the cytotoxicity at 70.5 h turned out to be 1.26%.
As to `COc1cccc2c1OCC(Cc1cc(C(N)=O)ccn1)C2` (stereo unspecified), the cytotoxicity at 70.5 h worked out at 26%.
As for `CNCC(=O)N1CCCC1c1nc(C(C)C)no1` (stereo unspecified), the figure is -7.36%; as for `COc1cccc([C@H]2CN(C(=O)c3scc4c3CCCC4)C[C@@H]2N)c1`, -12%; as for `COc1ccccc1CN(Cc1cccnc1)Cc1nccs1`, 9.35%.
On to `Cc1cc(C)n(CCCN(C)c2cc(C3CC3)ncn2)n1`, for which the cytotoxicity at 70.5 h was -7.51%.
Consider `Cn1cc(CN(C(=O)c2ccc(O)c(Cl)c2)C2CC2)cn1`, for which the cytotoxicity at 70.5 h was -14.8%.
On to `OC1(CN2CCCCC2)CCN(c2cccc(C(F)(F)F)n2)C1` (stereo unspecified), for which the cytotoxicity at 70.5 h is -14.1%.
The value for `COCCNc1cc(-c2cccc(C(=O)O)c2C)c2cc[nH]c2n1` was -11.2%; that for `COc1ccccc1-c1ncc(CN2CCCC(CCC(N)=O)C2)s1` (stereo unspecified) was -10.1%.
As for `COc1ccc2cc(C3CN(C(=O)COC(C)C)CCO3)ccc2c1` (stereo unspecified), the figure is -2.81%; as for `Cc1ccc([C@@H]2CN(C(=O)c3ccon3)C[C@H]2NC(=O)C2CC2)cc1`, -0.162%; as for `Cc1ncc(CC(=O)N2CCCCC2CCN2CCCC2)c(=O)[nH]1` (stereo unspecified), -3.87%.
With `CCNC(=O)c1ccnc(N2CCCC(COc3ccccc3C)C2)c1` (stereo unspecified), the cytotoxicity at 70.5 h is -21.9%.
For `CCNc1ncc(C(=O)N[C@@H](C)[C@H](O)c2ccccc2)cn1`, the cytotoxicity at 70.5 h is -2.67%.
As for `O=C(CCC1CCN(C(=O)c2csnn2)CC1)NCc1cccc(Cl)c1`, the figure is 7.85%.
The value for `CC(CCCC(C)(C)O)Nc1ccc(-c2nccn2C)nn1` (stereo unspecified) was 0.443%; that for `CNC(=O)C1CCN(c2ncnc3c2CCN(C(=O)C2CC2)C3)C1` (stereo unspecified) was -5.76%.
With `CC(C)c1cc(C(=O)NCCn2nnc3ccccc32)no1`, the cytotoxicity at 70.5 h was found to be 41.3%.
As for `CCN(CC)CC(=O)NCc1cccnc1-n1cnc2ccccc21`, the cytotoxicity at 70.5 h was -3.36%.
As for `COc1ccc2c(c1)C(C(=O)N(C)CCn1ccnc1C)CC(=O)N2` (stereo unspecified), the figure is -3.22%; as for `CCOc1ccccc1-n1c(C2CCC2)n[nH]c1=O`, -18.9%.
The value for `Cc1noc(C)c1C1CCCN1CCC(=O)N1CCc2ccccc2C1` (stereo unspecified) was -13.3%; that for `NCC1CCCN(c2nc(-c3ccccc3)nc3c2CCNCC3)C1` (stereo unspecified) was 5.19%; that for `COCC1CCN(C(=O)c2cn(Cc3ccccc3C(F)(F)F)nn2)C1` (stereo unspecified) was -21.7%.
As for `CC(=O)N1CCCN(C(=O)Nc2ccccc2N2CCOC2=O)CC1`, the cytotoxicity at 70.5 h was -4.99%.
As to `O=C(CC1C=CCC1)N1CCc2ncnc(NCc3ccon3)c2CC1` (stereo unspecified), the cytotoxicity at 70.5 h was 23.6%.
As for `CCCN1CCC(N2CCN(c3cc(C)nc(C)c3)CC2)CC1`, the figure is 5.6%; as for `O=C1CCC2(CCCN(C(=O)c3ccc[nH]3)C2)CN1CCc1c[nH]cn1` (stereo unspecified), 16.9%; as for `N#Cc1c(N)nc2c(c1-c1cnc(N3CCCC3)nc1)COCC2`, -5.19%.
As for `CCn1ncnc1C(C)NC(=O)Cc1cc2c(cc1Cl)OCCO2` (stereo unspecified), the figure is 1.43%; as for `COCCNS(=O)(=O)c1cccc2c1CN(C(=O)c1ccoc1)CC2`, -10.7%; as for `Cc1ccc(CN(C)Cc2nc3ccc(F)cc3[nH]2)cn1`, -0.998%.
The value for `Cc1cc(C2CCCN2Cc2ccc(C(=O)Nc3nccs3)cc2)on1` (stereo unspecified) was -2.76%.
Regarding `Cn1ccnc1CCC1CCCCN1Cc1nccn1C` (stereo unspecified), the cytotoxicity at 70.5 h was 14.9%.
Turning to `CC(C)CC(C)NC1CCN(c2cccc(-c3cscn3)c2)CC1` (stereo unspecified), the cytotoxicity at 70.5 h is -8.68%.
The value for `COc1ccc(CCCN2C(=O)O[C@@H]3CN(C4CCOCC4)C[C@@H]32)cc1` was -3.64%.
As for `CSCC(=O)N(C)Cc1noc(-c2ccccc2)n1`, the figure is -9.48%; as for `CCN1CC(CN(C)Cc2nc(-c3cccc(C)c3)oc2C)CC1=O` (stereo unspecified), 28.2%.
The value for `Cc1nc2cc(NC(=O)Cn3ncc(N4CCCC4)cc3=O)ccc2s1` was -4.89%; that for `Cc1c[nH]c(CN2CCOC(c3ccc(F)cc3)C2)c(C)c1=O` (stereo unspecified) was -3.86%.
Consider `O=C(CC(F)(F)F)N1CCCC(c2nccn2Cc2ccncc2)C1` (stereo unspecified), for which the cytotoxicity at 70.5 h was -6.22%.
The value for `CC(C)CN1CC(c2nc(-c3cccc(F)c3)c[nH]2)CC1=O` (stereo unspecified) was -7.31%; that for `CC(=O)N1CCOC(Cc2cccc(C(F)(F)F)c2)C1` (stereo unspecified) was -4.91%; that for `O=C(NCC1CC1)[C@@H]1CCO[C@@H]2CCN(Cc3ccsc3)C[C@H]21` was -10.2%.
The value for `COc1ccc(CN2CC[C@@H](O)[C@@H]2Cc2cnn(C)c2)cc1` was 21.7%.
Consider `O=C([C@H]1C[C@H]2OCC[C@H]2N(CCc2ccccc2)C1)N1CCCO1`, for which the cytotoxicity at 70.5 h is -3.87%.
The value for `Cn1cc(C[C@H]2[C@H](O)CCN2Cc2ccc(F)cc2)cn1` was 4.14%; that for `COc1ccc(CN2CC[C@H](O)[C@@H]2Cc2cnn(C)c2)cc1` was -11.4%; that for `Cc1cncc(C(=O)N2CC[C@@]3(C[C@H](NS(C)(=O)=O)CCO3)C2)c1` was -7.39%.
The value for `O=C(C1CCOCC1)N1CCc2onc(COc3cccnc3)c2C1` was 0.0469%.
The value for `O=C(c1ccncc1F)N1CCc2onc(COc3cccnc3)c2C1` was -6.64%; that for `O=S(=O)(c1cccs1)N1CCCC2(COCCN(c3cccnc3)C2)C1` (stereo unspecified) was -1.65%; that for `O=C(N1CCCC1)N1CCc2onc(COc3cccnc3)c2C1` was -3.27%.
As for `Cn1cc(C[C@H]2[C@H](O)CCN2CC2CCOCC2)cn1`, the cytotoxicity at 70.5 h was -6.28%.
As for `O=C([C@H]1C[C@H]2OCC[C@H]2N(CC2CCOCC2)C1)N1CCCCO1`, the figure is -7.91%; as for `CC1=N[C@@]2(CC[C@@H]3CN(CC(C)C)C[C@@H]32)C(=O)N1CC(C)C`, -13.7%; as for `O=C(NCC1OCCc2cn(CC3CCOCC3)nc21)c1ccncc1` (stereo unspecified), -10.6%.
For the molecule `COCCNC(=O)[C@H]1C[C@@H]2CCN(Cc3nccs3)C[C@H]2O1`, the cytotoxicity at 70.5 h is -13.5%.
Take `O=C(NC1CC1)[C@H]1C[C@H]2OCC[C@H]2N(Cc2ccc3ccccc3n2)C1`: the cytotoxicity at 70.5 h is -4.59%.
The value for `Cc1ccc(O[C@@H]2C[C@H]3CN(C(=O)Cc4ccccn4)CCN3C2)cc1` was 17.9%.
As for `Cc1occc1C(=O)N1C[C@@H]2OCCN(CCN3CCCC3)[C@@H]2C1`, the cytotoxicity at 70.5 h is -3.12%.
Take `CN(C)[C@@H]1CCN(CC2CC2)[C@H]1Cc1cnn(C)c1`: the cytotoxicity at 70.5 h amounted to 0.964%.
The value for `CN1CCN(C2COC3(CCN(Cc4cccs4)CC3)C2)CC1` (stereo unspecified) was 4.27%; that for `c1csc(CN2CCCC3(COCCN(c4cnccn4)C3)C2)c1` (stereo unspecified) was -6.31%; that for `O=C(Cc1ccccn1)N1CCN2C[C@H](Oc3cncnc3)C[C@H]2C1` was -7.37%.
As for `Cc1cc(CN2CC[C@H]3C[C@H](C(=O)Nc4cccnc4C)O[C@@H]3C2)no1`, the figure is 12.4%; as for `Cc1ncccc1NC(=O)[C@H]1C[C@@H]2CCN(Cc3ccsc3)C[C@H]2O1`, -13.8%.
